Source: patent US5120720A, “Preparation of lipophile:hydroxypropylcyclodextrin complexes by a method using co-solubilizers” (priority 1990, dated 1992)
Where two headings read alike, the source gives them in different places. Each block holds one compound with its values, some of them ahead of it.

Legend:
[1] = read-out: Stability constant of the complex with α-cyclodextrin, cited from earlier work
[2] = read-out: Stability constant of the complex with β-cyclodextrin, cited from earlier work
[3] = Solubility of freeze-dried complexes or residues in water, and stability of the solutions; format: physicochemical; settings: attempted complex preparation
Experimental: For a number of applications, complexes in powdery form as prepared by freeze-drying (lyophilizing), are preferable to the glassy residues such as are obtained by the above discussed procedure. Therefore, to obtain complexes in a powdery form, the glassy preparations were dissolved in water (final concentration of hydroxypropyl-β-cyclodextrin was about 10% W/W), sterilized by ultrafiltration and freeze-dried. All of the following exemplary preparations of steroids so prepared, dissolved fully. Moreover, the complexes so obtained were again amorphous and could be tabletted by direct compression.
The solubility of freeze-dried complexes such as those provided below was invariably high. For example, all the complexes of steroids in Examples 1-3 dissolved smoothly in water up to 40% W/W concentration, and these solutions were stable for at least 24 hours.
[…] Full dissolution occurred in five minutes; the solution was then filtered through a membrane filter (pore size 0.22 μm). The filtrate was evaporated at room temperature in vacuo to dryness leaving a glassy residue. […] The yield was 85%.

[4] = format: physicochemical
Text: The methods of preparation herein disclosed were also used successfully with the ethanol-soluble peptides such as gramicidin S, complexed with hydroxypropyl-β-cyclodextrin (Example 4). It was also used to prepare the gramicidin S:hydroxypropyl-α-cyclodextrin preparation (Example 5) and gramicidin S:hydroxypropyl-γ-cyclodextrin preparation (Example 6).
The processes disclosed herein differ substantially from those described by Szejtli (p. 268) for the preparation of crystalline β-cyclodextrin:vitamin D3 complexes, which were prepared using organic solvents. In this regard, the procedure described by Szejtli consists of the co-dissolution of components, i.e., of crystalline β-cyclodextrin and vitamin D3, at 50° C. in 60-65% aqueous ethanol, followed by cooling of the clear solution during which crystalline complex of the vitamin precipitates. Moreover, attempts to use Szejtli's procedure for the above complexes were not successful, since concentration of ethanol in the range 60-65% solubilized steroids only incompletely and no precipitation occurred.

[5] = β-cyclodextrin, aqueous sodium hydroxide then phosphoric acid (U.S. Pat. No. 4,883,785, Example 3); cited from earlier work
[6] = source (d) W. Hirsch et al. 1987
[7] = source (a) M. Suzuki et al. 1988
[8] = source (b) Y. Matsui and K. Mochida 1979

Compound: N [ammonia]
Kd [1, 6]: 0.0164 mM
Kd [2, 6]: 0.0667 mM

Compound: CC(C)(C)O [t-butanol]
Kd [2, 7]: 23.8 mM
Kd [2, 8]: 20.8 mM

Compound: CCCCO [n-butanol]
Kd [1, 7]: 9.09 mM
Kd [1, 8]: 11.2 mM

Compound: gramicidin D
Solubility in water of solid residue after evaporation of ethanol 95% solution [3]: insoluble in water
Dissolution in ethanol 75% ([4]; ethanol 75%): did not dissolve
Dissolution in ethanol 95% ([4]; ethanol 95%): dissolved

Compound: C[C@@H]1[C@H](O)[C@@H](C)/C=C/C=C/C=C/C=C/C=C/C=C/C=C/[C@H](O[C@@H]2O[C@H](C)[C@@H](O)[C@H](N)[C@@H]2O)C[C@@H]2O[C@](O)(C[C@@H](O)C[C@@H](O)[C@H](O)CC[C@@H](O)C[C@@H](O)CC(=O)O[C@H]1C)C[C@H](O)[C@H]2C(=O)O [amphotericin B]
Starting drug solubilized [5]: about 1%

Compound: CC(C)(C)CO [2,2-dimethyl-1-propanol]
Kd [1, 7]: 33.3 mM
Kd [2, 7]: 1.52 mM
Kd [2, 8]: 1.72 mM

Solubility in 75% ethanol [4]: low solubility
Compound: OC[C@H]1O[C@@H]2O[C@H]3[C@H](O)[C@@H](O)[C@@H](O[C@H]4[C@H](O)[C@@H](O)[C@@H](O[C@H]5[C@H](O)[C@@H](O)[C@@H](O[C@H]6[C@H](O)[C@@H](O)[C@@H](O[C@H]7[C@H](O)[C@@H](O)[C@@H](O[C@H]8[C@H](O)[C@@H](O)[C@@H](O[C@H]1[C@H](O)[C@H]2O)O[C@@H]8CO)O[C@@H]7CO)O[C@@H]6CO)O[C@@H]5CO)O[C@@H]4CO)O[C@@H]3CO [β-cyclodextrin]

Compound: CCCO [n-propanol]
Kd [1, 7]: 50 mM
Kd [1, 8]: 43.5 mM

Compound: CCCCCO [n-pentanol]
Kd [1, 7]: 3.33 mM
Kd [1, 8]: 3.1 mM
Kd [2, 7]: 11.5 mM
Kd [2, 8]: 15.9 mM
